In patent publication US20220323406A1, “METHODS AND COMPOSITIONS FOR DIFFERENTIATING STEM CELLS” (Massachusetts Institute of Technology, priority 2019, published 2022):

How the values were obtained:
Conditions in all cases: primary screen
[1] = system: ENR+CD organoids (ISC to Paneth cell differentiation); experiment: Primary screen: CCh-stimulated lysozyme secretion LYZ.S, 2.5-D 384-well ENR+CD organoid differentiation; type: cell-based, mouse
From the text: (§1) High-throughput screening.

[2] = system: ENR+CD organoids (ISC to Paneth cell differentiation); experiment: Primary screen: basal (non-stimulated) lysozyme secretion LYZ.NS, 2.5-D 384-well ENR+CD organoid differentiation; type: cell-based, mouse
From the text: as §1

[3] = system: ENR+CD organoids; experiment: Primary screen: ATP (CellTiter-Glo 3D, CTG) cell number/viability, 2.5-D 384-well ENR+CD organoids;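 further: compounds given at plating and again on day 3 over a 6-day differentiation from ENR+CV stem-cell-enriched precursors, ATP measured on day 6, plate median as control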
[4] = 1st dose row of the treatment (0.08 uM by row order; dose not reprinted)
[5] = 2nd dose row of the treatment (0.40 uM by row order; dose not reprinted)
[6] = 3rd dose row of the treatment (2.00 uM by row order; dose not reprinted)
[7] = 4th dose row of the treatment (10.00 uM by row order; dose not reprinted)

| SMILES | SSMD.LYZ.S_Rep (strictly standardized mean difference) [1, 4] | Z.LYZ.S (standard z score) [1, 4] | SSMD.LYZ.S_Rep (strictly standardized mean difference) [1, 5] | Z.LYZ.S (standard z score) [1, 5] | SSMD.LYZ.S_Rep (strictly standardized mean difference) [1, 6] | Z.LYZ.S (standard z score) [1, 6] | SSMD.LYZ.S_Rep (strictly standardized mean difference) [1, 7] | Z.LYZ.S (standard z score) [1, 7] | Dose.FC.LYZ.S ([1]; dose 0.08 uM) | Dose.FC.LYZ.S ([1]; dose 0.40 uM) | Dose.FC.LYZ.S ([1]; dose 2.00 uM) | Dose.FC.LYZ.S ([1]; dose 10.00 uM) | SSMD.LYZ.NS_Rep (strictly standardized mean difference) [2, 4] | SSMD.LYZ.NS_Rep (strictly standardized mean difference) [2, 5] | SSMD.LYZ.NS_Rep (strictly standardized mean difference) [2, 6] | SSMD.LYZ.NS_Rep (strictly standardized mean difference) [2, 7] | Dose.FC.LYZ.NS ([2]; dose 0.08 uM) | Z.LYZ.NS (standard z score) ([2]; dose 0.08 uM) | Dose.FC.LYZ.NS ([2]; dose 0.40 uM) | Z.LYZ.NS (standard z score) ([2]; dose 0.40 uM) | other results |
| --- | --- | --- | --- | --- | --- | --- | --- | --- | --- | --- | --- | --- | --- | --- | --- | --- | --- | --- | --- | --- | --- |
| C=CCNC1=C2C[C@@H](C)C[C@H](OC)[C@H](O)[C@@H](C)/C=C(\C)[C@H](OC(N)=O)[C@@H](OC)/C=C\C=C(/C)C(=O)NC(=CC1=O)C2=O [17-AAG (Tanespimycin)] | −1.387 | −1.826 | −1.428 | −2.199 | −1.462 | −2.219 | −1.655 | −1.975 | −0.282 log2 fold change | −0.340 log2 fold change | −0.343 log2 fold change | −0.306 log2 fold change | −1.180 | −1.186 | −1.053 | −1.183 | −0.193 log2 fold change | −1.682 | −0.205 log2 fold change | −1.786 | Dose.FC.LYZ.NS ([2]; dose 2.00 uM): −0.142 log2 fold change; Z.LYZ.NS (standard z score) ([2]; dose 2.00 uM): −1.239; Dose.FC.LYZ.NS ([2]; dose 10.00 uM): −0.187 log2 fold change; Z.LYZ.NS (standard z score) ([2]; dose 10.00 uM): −1.631; SSMD.CTG.Rep (strictly standardized mean difference) [3, 4]: −0.926; SSMD.CTG.Rep (strictly standardized mean difference) [3, 5]: −1.023; SSMD.CTG.Rep (strictly standardized mean difference) [3, 6]: −1.783; SSMD.CTG.Rep (strictly standardized mean difference) [3, 7]: −1.348; Dose.FC.CTG ([3]; dose 0.08 uM): −1.012 log2 fold change; Z.CTG (standard z score) ([3]; dose 0.08 uM): −2.418; Dose.FC.CTG ([3]; dose 0.40 uM): −1.262 log2 fold change; Z.CTG (standard z score) ([3]; dose 0.40 uM): −3.015; Dose.FC.CTG ([3]; dose 2.00 uM): −1.459 log2 fold change; Z.CTG (standard z score) ([3]; dose 2.00 uM): −3.486; Dose.FC.CTG ([3]; dose 10.00 uM): −1.446 log2 fold change; Z.CTG (standard z score) ([3]; dose 10.00 uM): −3.454 |
| CN1CCc2cc3c(cc2[C@H]1[C@@H]1OC(=O)c2c1ccc1c2OCO1)OCO3 [(+)-Bicuculline] | 0.545 | 1.005 | 0.216 | 0.221 | −0.164 | −0.169 | 0.264 | 0.465 | 0.155 log2 fold change | 0.034 log2 fold change | −0.026 log2 fold change | 0.072 log2 fold change | 0.481 | 0.106 | 0.276 | 0.175 | 0.092 log2 fold change | 0.805 | 0.013 log2 fold change | 0.116 | Dose.FC.LYZ.NS ([2]; dose 2.00 uM): 0.031 log2 fold change; Z.LYZ.NS (standard z score) ([2]; dose 2.00 uM): 0.270; Dose.FC.LYZ.NS ([2]; dose 10.00 uM): 0.020 log2 fold change; Z.LYZ.NS (standard z score) ([2]; dose 10.00 uM): 0.176; SSMD.CTG.Rep (strictly standardized mean difference) [3, 4]: 0.472; SSMD.CTG.Rep (strictly standardized mean difference) [3, 5]: −0.078; SSMD.CTG.Rep (strictly standardized mean difference) [3, 6]: −0.237; SSMD.CTG.Rep (strictly standardized mean difference) [3, 7]: −0.405; Dose.FC.CTG ([3]; dose 0.08 uM): 0.318 log2 fold change; Z.CTG (standard z score) ([3]; dose 0.08 uM): 0.760; Dose.FC.CTG ([3]; dose 0.40 uM): −0.029 log2 fold change; Z.CTG (standard z score) ([3]; dose 0.40 uM): −0.069; Dose.FC.CTG ([3]; dose 2.00 uM): −0.166 log2 fold change; Z.CTG (standard z score) ([3]; dose 2.00 uM): −0.396; Dose.FC.CTG ([3]; dose 10.00 uM): −0.132 log2 fold change; Z.CTG (standard z score) ([3]; dose 10.00 uM): −0.315 |
| C[C@H](Oc1cc(-c2cnn(C3CCNCC3)c2)cnc1N)c1c(Cl)ccc(F)c1Cl [(S)-crizotinib] | 0.881 | 0.808 | 0.084 | 0.103 | −0.343 | −0.383 | −0.491 | −0.720 | 0.125 log2 fold change | 0.016 log2 fold change | −0.059 log2 fold change | −0.111 log2 fold change | 0.838 | 0.094 | −0.229 | −0.438 | 0.193 log2 fold change | 1.679 | 0.009 log2 fold change | 0.081 | Dose.FC.LYZ.NS ([2]; dose 2.00 uM): −0.034 log2 fold change; Z.LYZ.NS (standard z score) ([2]; dose 2.00 uM): −0.294; Dose.FC.LYZ.NS ([2]; dose 10.00 uM): −0.068 log2 fold change; Z.LYZ.NS (standard z score) ([2]; dose 10.00 uM): −0.588; SSMD.CTG.Rep (strictly standardized mean difference) [3, 4]: 0.742; SSMD.CTG.Rep (strictly standardized mean difference) [3, 5]: 0.190; SSMD.CTG.Rep (strictly standardized mean difference) [3, 6]: 0.285; SSMD.CTG.Rep (strictly standardized mean difference) [3, 7]: 0.034; Dose.FC.CTG ([3]; dose 0.08 uM): 0.241 log2 fold change; Z.CTG (standard z score) ([3]; dose 0.08 uM): 0.575; Dose.FC.CTG ([3]; dose 0.40 uM): 0.054 log2 fold change; Z.CTG (standard z score) ([3]; dose 0.40 uM): 0.130; Dose.FC.CTG ([3]; dose 2.00 uM): 0.111 log2 fold change; Z.CTG (standard z score) ([3]; dose 2.00 uM): 0.266; Dose.FC.CTG ([3]; dose 10.00 uM): 0.019 log2 fold change; Z.CTG (standard z score) ([3]; dose 10.00 uM): 0.046 |
| C=C1C(=O)O[C@H]2[C@H]1CC/C(C)=C/CC[C@@]1(C)O[C@@H]21 [(−)-Parthenolide] | 0.679 | 0.799 | 0.763 | 1.067 | 0.506 | 0.441 | 0.345 | 0.530 | 0.124 log2 fold change | 0.165 log2 fold change | 0.068 log2 fold change | 0.082 log2 fold change | 0.601 | 0.480 | 0.920 | 0.998 | 0.058 log2 fold change | 0.506 | 0.067 log2 fold change | 0.583 | Dose.FC.LYZ.NS ([2]; dose 2.00 uM): 0.089 log2 fold change; Z.LYZ.NS (standard z score) ([2]; dose 2.00 uM): 0.776; Dose.FC.LYZ.NS ([2]; dose 10.00 uM): 0.133 log2 fold change; Z.LYZ.NS (standard z score) ([2]; dose 10.00 uM): 1.159; SSMD.CTG.Rep (strictly standardized mean difference) [3, 4]: 0.498; SSMD.CTG.Rep (strictly standardized mean difference) [3, 5]: 0.736; SSMD.CTG.Rep (strictly standardized mean difference) [3, 6]: 0.482; SSMD.CTG.Rep (strictly standardized mean difference) [3, 7]: 0.257; Dose.FC.CTG ([3]; dose 0.08 uM): 0.135 log2 fold change; Z.CTG (standard z score) ([3]; dose 0.08 uM): 0.322; Dose.FC.CTG ([3]; dose 0.40 uM): 0.228 log2 fold change; Z.CTG (standard z score) ([3]; dose 0.40 uM): 0.544; Dose.FC.CTG ([3]; dose 2.00 uM): 0.157 log2 fold change; Z.CTG (standard z score) ([3]; dose 2.00 uM): 0.376; Dose.FC.CTG ([3]; dose 10.00 uM): 0.157 log2 fold change; Z.CTG (standard z score) ([3]; dose 10.00 uM): 0.374 |
| N#Cc1c(O)c2c(-c3ccc(-c4ccccc4O)cc3)csc2[nH]c1=O [A-769662] | 0.365 | 0.426 | 0.472 | 0.460 | 0.488 | 1.191 | 0.119 | 0.121 | 0.066 log2 fold change | 0.071 log2 fold change | 0.184 log2 fold change | 0.019 log2 fold change | 0.286 | 0.498 | 0.554 | 0.068 | 0.045 log2 fold change | 0.394 | 0.069 log2 fold change | 0.599 | Dose.FC.LYZ.NS ([2]; dose 2.00 uM): 0.054 log2 fold change; Z.LYZ.NS (standard z score) ([2]; dose 2.00 uM): 0.473; Dose.FC.LYZ.NS ([2]; dose 10.00 uM): 0.009 log2 fold change; Z.LYZ.NS (standard z score) ([2]; dose 10.00 uM): 0.075; SSMD.CTG.Rep (strictly standardized mean difference) [3, 4]: −0.255; SSMD.CTG.Rep (strictly standardized mean difference) [3, 5]: 0.019; SSMD.CTG.Rep (strictly standardized mean difference) [3, 6]: −0.312; SSMD.CTG.Rep (strictly standardized mean difference) [3, 7]: −0.056; Dose.FC.CTG ([3]; dose 0.08 uM): −0.074 log2 fold change; Z.CTG (standard z score) ([3]; dose 0.08 uM): −0.177; Dose.FC.CTG ([3]; dose 0.40 uM): 0.007 log2 fold change; Z.CTG (standard z score) ([3]; dose 0.40 uM): 0.016; Dose.FC.CTG ([3]; dose 2.00 uM): −0.127 log2 fold change; Z.CTG (standard z score) ([3]; dose 2.00 uM): −0.304; Dose.FC.CTG ([3]; dose 10.00 uM): −0.015 log2 fold change; Z.CTG (standard z score) ([3]; dose 10.00 uM): −0.036 |
